Results as given in article PMC5218480 (PLoS ONE, 2017).

Tested on: MV-4-11 cells
Test: Gene expression microarray analysis (Affymetrix PrimeView) and GSEA
Assay type: cell-based, human
Parameters: RFU PODN (11730768_x_at) / Fold change /veh PODN (11730768_x_at) / RFU LINC00158 (11744669_a_at) / Fold change /veh LINC00158 (11744669_a_at) / RFU DUSP10 (11751237_a_at) / Fold change /veh DUSP10 (11751237_a_at) / RFU ID3 (11757404_x_at) / Fold change /veh ID3 (11757404_x_at) / RFU PLEKHG5 (11737974_s_at) / Fold change /veh PLEKHG5 (11737974_s_at) / RFU LRRC4B (11730491_at) / Fold change /veh LRRC4B (11730491_at) / RFU GIMAP4 (11747438_a_at) / Fold change /veh GIMAP4 (11747438_a_at) / RFU KRT8 (11758183_x_at) / Fold change /veh KRT8 (11758183_x_at) / RFU CNN1 (11734310_a_at) / Fold change /veh CNN1 (11734310_a_at) / RFU VPS37D (11726825_at) / Fold change /veh VPS37D (11726825_at) / RFU C10orf10 (11716522_x_at) / Fold change /veh C10orf10 (11716522_x_at) / RFU KIR2DL2 /// KIR2DL4 /// KIR2DL5A /// KIR2DL5B /// KIR2DS1 /// KIR2DS2 /// KIR2DS3 /// KIR2DS4 /// KIR3DL3 /// KIR3DL3 /// KIR3DS1 (11738374_at) / Fold change /veh KIR2DL2 /// KIR2DL4 /// KIR2DL5A /// KIR2DL5B /// KIR2DS1 /// KIR2DS2 /// KIR2DS3 /// KIR2DS4 /// KIR3DL3 /// KIR3DL3 /// KIR3DS1 (11738374_at) / RFU C1QL1 (11718748_at) / Fold change /veh C1QL1 (11718748_at) / RFU TMPRSS4 (11747572_a_at) / Fold change /veh TMPRSS4 (11747572_a_at) / RFU HAMP (11756126_x_at) / Fold change /veh HAMP (11756126_x_at) / RFU RNFT2 (11725882_a_at) / Fold change /veh RNFT2 (11725882_a_at) / RFU NR4A2 (11747474_a_at) / Fold change /veh NR4A2 (11747474_a_at) / RFU ABCC12 (11746883_a_at) / Fold change /veh ABCC12 (11746883_a_at) / RFU TMEM136 (11760407_x_at) / Fold change /veh TMEM136 (11760407_x_at) / RFU CLDN22 /// WWC2 (11732394_at) / Fold change /veh CLDN22 /// WWC2 (11732394_at) / RFU HLA-DPB1 (11760878_x_at) / Fold change /veh HLA-DPB1 (11760878_x_at) / RFU SPINT1 (11716480_a_at) / Fold change /veh SPINT1 (11716480_a_at) / RFU GAP43 (11754022_s_at) / Fold change /veh GAP43 (11754022_s_at) / RFU A4GNT (11735810_at) / Fold change /veh A4GNT (11735810_at) / RFU PRB3 (11715151_x_at) / Fold change /veh PRB3 (11715151_x_at) / RFU TUBB4B (11761932_at) / Fold change /veh TUBB4B (11761932_at) / RFU CAPN14 (11732068_a_at) / Fold change /veh CAPN14 (11732068_a_at) / RFU TMCC2 (11721928_a_at) / Fold change /veh TMCC2 (11721928_a_at) / RFU IRGQ (11745062_a_at) / Fold change /veh IRGQ (11745062_a_at) / RFU FAM174B (11720279_a_at) / Fold change /veh FAM174B (11720279_a_at) / RFU TMPRSS4 (11748680_a_at) / Fold change /veh TMPRSS4 (11748680_a_at) / RFU FAM212B (11763350_a_at) / Fold change /veh FAM212B (11763350_a_at) / RFU PLEKHG5 (11743358_a_at) / Fold change /veh PLEKHG5 (11743358_a_at) / RFU ZSCAN30 (11745921_a_at) / Fold change /veh ZSCAN30 (11745921_a_at) / RFU CMKLR1 (11741424_a_at) / Fold change /veh CMKLR1 (11741424_a_at) / RFU LOC101060620 /// MAPK8IP1 (11723275_at) / Fold change /veh LOC101060620 /// MAPK8IP1 (11723275_at) / RFU SPTSSB (11747773_x_at) / Fold change /veh SPTSSB (11747773_x_at) / RFU PRSS12 (11739890_at) / Fold change /veh PRSS12 (11739890_at) / RFU BIN1 (11741810_x_at) / Fold change /veh BIN1 (11741810_x_at) / RFU WNT11 (11732464_a_at) / Fold change /veh WNT11 (11732464_a_at) / RFU C10orf10 (11716521_a_at) / Fold change /veh C10orf10 (11716521_a_at) / RFU C5orf56 (11738089_at) / Fold change /veh C5orf56 (11738089_at) / RFU CYB561 (11721691_x_at) / Fold change /veh CYB561 (11721691_x_at) / RFU ANKRD19P (11752326_a_at) / Fold change /veh ANKRD19P (11752326_a_at) / RFU OR2T12 /// OR2T33 /// OR2T8 (11738714_s_at) / Fold change /veh OR2T12 /// OR2T33 /// OR2T8 (11738714_s_at) / RFU VCAN (11748164_a_at) / Fold change /veh VCAN (11748164_a_at) / RFU JSRP1 (11732532_at) / Fold change /veh JSRP1 (11732532_at) / RFU KRTAP10-11 (11738290_x_at) / Fold change /veh KRTAP10-11 (11738290_x_at) / RFU MYO3A (11730013_a_at) / Fold change /veh MYO3A (11730013_a_at) / RFU EBF3 (11725865_a_at) / Fold change /veh EBF3 (11725865_a_at) / RFU CAMK2N1 (11719241_x_at) / Fold change /veh CAMK2N1 (11719241_x_at) / RFU C5orf56 (11738088_a_at) / Fold change /veh C5orf56 (11738088_a_at) / RFU OLFML3 (11715873_a_at) / Fold change /veh OLFML3 (11715873_a_at) / RFU LOC100653217 /// NTM (11731650_a_at) / Fold change /veh LOC100653217 /// NTM (11731650_a_at) / RFU MAPK11 (11762145_a_at) / Fold change /veh MAPK11 (11762145_a_at) / RFU FIZ1 (11724087_x_at) / Fold change /veh FIZ1 (11724087_x_at) / RFU OASL (11726364_x_at) / Fold change /veh OASL (11726364_x_at) / RFU SOX15 (11748057_x_at) / Fold change /veh SOX15 (11748057_x_at) / RFU CD79A (11719716_a_at) / Fold change /veh CD79A (11719716_a_at) / RFU HIST1H1D (11736915_at) / Fold change /veh HIST1H1D (11736915_at) / RFU CASKIN2 (11723855_a_at) / Fold change /veh CASKIN2 (11723855_a_at) / RFU LOC730098 (11760151_x_at) / Fold change /veh LOC730098 (11760151_x_at) / RFU OR4N2 (11742367_at) / Fold change /veh OR4N2 (11742367_at) / RFU PRRT2 (11749266_a_at) / Fold change /veh PRRT2 (11749266_a_at) / RFU SNX32 (11753110_a_at) / Fold change /veh SNX32 (11753110_a_at) / RFU CDHR5 (11726645_a_at) / Fold change /veh CDHR5 (11726645_a_at) / RFU RCAN1 (11760418_a_at) / Fold change /veh RCAN1 (11760418_a_at) / RFU FAM167A (11723789_a_at) / Fold change /veh FAM167A (11723789_a_at) / RFU FAM26E (11764081_at) / Fold change /veh FAM26E (11764081_at) / RFU ISYNA1 (11749810_s_at) / Fold change /veh ISYNA1 (11749810_s_at) / RFU ACY1 (11761880_at) / Fold change /veh ACY1 (11761880_at) / RFU 11764098_at / Fold change /veh 11764098_at / RFU SAMD14 (11745864_x_at) / Fold change /veh SAMD14 (11745864_x_at) / RFU NPB (11741838_a_at) / Fold change /veh NPB (11741838_a_at) / RFU TMPRSS6 (11731388_a_at) / Fold change /veh TMPRSS6 (11731388_a_at) / RFU KRTAP10-2 (11738614_at) / Fold change /veh KRTAP10-2 (11738614_at) / RFU ARHGAP8 /// PRR5-ARHGAP8 (11727945_x_at) / Fold change /veh ARHGAP8 /// PRR5-ARHGAP8 (11727945_x_at) / RFU KRTAP5-7 /// NADSYN1 (11734609_at) / Fold change /veh KRTAP5-7 /// NADSYN1 (11734609_at) / RFU RASL12 (11751679_a_at) / Fold change /veh RASL12 (11751679_a_at) / RFU CDKN2B (11736163_a_at) / Fold change /veh CDKN2B (11736163_a_at) / RFU PRF1 (11729649_at) / Fold change /veh PRF1 (11729649_at) / RFU, ZNF638 /// ZNF638-IT1 / Fold change vs veh, ZNF638 /// ZNF638-IT1 / RFU, PANK3 / Fold change vs veh, PANK3 / RFU, SH3YL1 / Fold change vs veh, SH3YL1 / RFU, ZEB2 / Fold change vs veh, ZEB2 / RFU, NRIP1 / Fold change vs veh, NRIP1 / RFU, PTTG1IP / Fold change vs veh, PTTG1IP / RFU, CAPN2 / Fold change vs veh, CAPN2 / RFU, MED14 / Fold change vs veh, MED14 / RFU, SNORA58 / Fold change vs veh, SNORA58 / RFU, C1orf63 / Fold change vs veh, C1orf63 / RFU, LRRFIP1 / Fold change vs veh, LRRFIP1 / RFU, NDUFAF7 / Fold change vs veh, NDUFAF7 / RFU, SLC12A2 / Fold change vs veh, SLC12A2 / RFU, IBTK / Fold change vs veh, IBTK / RFU, ESF1 / Fold change vs veh, ESF1 / Fold change vs veh, TMEM50B / RFU, TAOK1 / Fold change vs veh, TAOK1 / RFU, ACBD3 / Fold change vs veh, ACBD3 / RFU, TMA16 / Fold change vs veh, TMA16 / RFU, RWDD3 / Fold change vs veh, RWDD3 / RFU, BCAT1 / Fold change vs veh, BCAT1 / RFU, EDEM3 / Fold change vs veh, EDEM3 / RFU, TMEM33 / Fold change vs veh, TMEM33 / RFU, WDR75 / Fold change vs veh, WDR75 / RFU, AHCTF1 / Fold change vs veh, AHCTF1 / RFU, TFRC / Fold change vs veh, TFRC / RFU, ZDHHC17 / Fold change vs veh, ZDHHC17 / RFU, NOM1 / Fold change vs veh, NOM1 / RFU, ARL8B / Fold change vs veh, ARL8B / RFU, ZBTB11 / Fold change vs veh, ZBTB11 / RFU, TAMM41 / Fold change vs veh, TAMM41 / RFU, KIAA1704 /// LOC100996395 / Fold change vs veh, KIAA1704 /// LOC100996395 / RFU, ING1 / Fold change vs veh, ING1 / RFU, TRMT61B / Fold change vs veh, TRMT61B / RFU, FUBP3 / Fold change vs veh, FUBP3 / RFU, TP53 / Fold change vs veh, TP53 / RFU, TNKS2 / Fold change vs veh, TNKS2 / RFU, ZFP14 / Fold change vs veh, ZFP14 / RFU, ACTR2 / Fold change vs veh, ACTR2 / RFU, PPP3R1 / Fold change vs veh, PPP3R1 / RFU, PIK3R1 / Fold change vs veh, PIK3R1 / RFU, HNRNPA1 / Fold change vs veh, HNRNPA1 / RFU, RNF170 / Fold change vs veh, RNF170 / RFU, ZNF28 / Fold change vs veh, ZNF28 / RFU, RNGTT / Fold change vs veh, RNGTT / RFU, OGT / Fold change vs veh, OGT / RFU, BRD1 / Fold change vs veh, BRD1 / RFU, MARS / Fold change vs veh, MARS / RFU, ZNF655 / Fold change vs veh, ZNF655 / RFU, FAHD1 / Fold change vs veh, FAHD1 / RFU, BDP1 / Fold change vs veh, BDP1 / RFU, LRRCC1 / Fold change vs veh, LRRCC1 / RFU, ARID1A / Fold change vs veh, ARID1A / RFU, ZNF146 / Fold change vs veh, ZNF146 / RFU, ZNF330 / Fold change vs veh, ZNF330 / RFU, GPN3 / Fold change vs veh, GPN3 / RFU, C9orf123 / Fold change vs veh, C9orf123 / RFU, N4BP2L2 / Fold change vs veh, N4BP2L2 / RFU, ARFIP1 / Fold change vs veh, ARFIP1 / RFU, FAM179B / Fold change vs veh, FAM179B / RFU, BCL10 / Fold change vs veh, BCL10 / RFU, UHRF1BP1L / Fold change vs veh, UHRF1BP1L / RFU, BET1 / Fold change vs veh, BET1 / RFU, CNOT2 / Fold change vs veh, CNOT2 / RFU, ZNF268 / Fold change vs veh, ZNF268 / Fold change vs veh, ZNF507 / RFU, DGCR2 / Fold change vs veh, DGCR2 / RFU, WDSUB1 / Fold change vs veh, WDSUB1 / Fold change vs veh, HSP90B1 /// MIR3652 / RFU, ADSS / Fold change vs veh, ADSS / RFU, GK / Fold change vs veh, GK / RFU, ZNF148 / Fold change vs veh, ZNF148 / RFU, TAF9 / Fold change vs veh, TAF9 / RFU, SLC1A5 / Fold change vs veh, SLC1A5 / RFU, SLMO2 / Fold change vs veh, SLMO2 / RFU, ABCC4 / Fold change vs veh, ABCC4 / RFU, LOC101060439 /// RAP1B / Fold change vs veh, LOC101060439 /// RAP1B / RFU, RFX7 / Fold change vs veh, RFX7 / RFU, GTPBP10 / Fold change vs veh, GTPBP10 / RFU, CNEP1R1 / Fold change vs veh, CNEP1R1 / RFU, BIVM-ERCC5 /// ERCC5 / Fold change vs veh, BIVM-ERCC5 /// ERCC5 / RFU, ILF3 / Fold change vs veh, ILF3 / RFU 11762660_at / Fold change /veh 11762660_at / RFU VCAN (11757783_s_at) / Fold change /veh VCAN (11757783_s_at) / RFU DDX43 (11728927_at) / Fold change /veh DDX43 (11728927_at) / RFU KRT8 (11758188_x_at) / Fold change /veh KRT8 (11758188_x_at) / RFU NKD1 (11759106_at) / Fold change /veh NKD1 (11759106_at) / RFU SRD5A1 (11742802_a_at) / Fold change /veh SRD5A1 (11742802_a_at) / RFU TPSAB1 /// TPSB2 (11721975_s_at) / Fold change /veh TPSAB1 /// TPSB2 (11721975_s_at) / RFU GSTM3 (11746129_a_at) / Fold change /veh GSTM3 (11746129_a_at) / RFU IL23R (11737362_x_at) / Fold change /veh IL23R (11737362_x_at) / RFU TMEM51 (11727254_a_at) / Fold change /veh TMEM51 (11727254_a_at) / RFU PIWIL2 (11732686_x_at) / Fold change /veh PIWIL2 (11732686_x_at) / RFU ORM1 (11744905_x_at) / Fold change /veh ORM1 (11744905_x_at) / RFU CCDC152 (11743942_at) / Fold change /veh CCDC152 (11743942_at) / RFU ECM1 (11717891_a_at) / Fold change /veh ECM1 (11717891_a_at) / RFU IL23R (11748794_a_at) / Fold change /veh IL23R (11748794_a_at) / RFU TNFAIP8L3 (11732012_x_at) / Fold change /veh TNFAIP8L3 (11732012_x_at) / RFU MBOAT4 (11741988_at) / Fold change /veh MBOAT4 (11741988_at) / RFU 11764193_at / Fold change /veh 11764193_at / RFU TMEM53 (11763286_at) / Fold change /veh TMEM53 (11763286_at) / RFU MAGEB2 (11727129_at) / Fold change /veh MAGEB2 (11727129_at) / RFU TMEM200A (11744735_a_at) / Fold change /veh TMEM200A (11744735_a_at) / RFU CCDC152 (11751479_a_at) / Fold change /veh CCDC152 (11751479_a_at) / RFU FAM211A (11726209_a_at) / Fold change /veh FAM211A (11726209_a_at) / RFU RGS16 (11746705_a_at) / Fold change /veh RGS16 (11746705_a_at) / RFU VCAN (11755009_s_at) / Fold change /veh VCAN (11755009_s_at) / RFU RHOB (11743442_s_at) / Fold change /veh RHOB (11743442_s_at) / RFU RGS16 (11720943_a_at) / Fold change /veh RGS16 (11720943_a_at) / RFU RGS16 (11720944_at) / Fold change /veh RGS16 (11720944_at) / RFU, VPS4B / Fold change vs veh, VPS4B / RFU, CREB1 / Fold change vs veh, CREB1 / RFU, DNAJC13 / Fold change vs veh, DNAJC13 / RFU, GNAQ / Fold change vs veh, GNAQ / RFU, CDK5R1 / Fold change vs veh, CDK5R1 / RFU, ZRANB3 / Fold change vs veh, ZRANB3 / RFU, CUL4A / Fold change vs veh, CUL4A / RFU, CCNY / Fold change vs veh, CCNY / RFU, UFL1 / Fold change vs veh, UFL1 / RFU, COG3 / Fold change vs veh, COG3 / RFU, DIAPH2 / Fold change vs veh, DIAPH2 / RFU, SKA2 / Fold change vs veh, SKA2 / RFU, AFF3 / Fold change vs veh, AFF3 / RFU, LMF1 / Fold change vs veh, LMF1 / RFU, IPO11 / Fold change vs veh, IPO11 / RFU, DFFB / Fold change vs veh, DFFB / RFU, FOXP1 / Fold change vs veh, FOXP1 / RFU, CARD8 / Fold change vs veh, CARD8 / RFU, STRN3 / Fold change vs veh, STRN3 / RFU, ADK / Fold change vs veh, ADK / RFU, RASSF2 / Fold change vs veh, RASSF2 / RFU, WIPF1 / Fold change vs veh, WIPF1 / RFU, LARP1B / Fold change vs veh, LARP1B / RFU, RASA1 / Fold change vs veh, RASA1 / RFU, RB1 / Fold change vs veh, RB1 / RFU, PPFIA1 / Fold change vs veh, PPFIA1 / RFU, MAT2A / Fold change vs veh, MAT2A / RFU, CCT5 / Fold change vs veh, CCT5 / RFU, WDR92 / Fold change vs veh, WDR92 / RFU, CUX1 / Fold change vs veh, CUX1 / RFU, TTC7A / Fold change vs veh, TTC7A / RFU, TMEM135 / Fold change vs veh, TMEM135 / RFU, DEPTOR / Fold change vs veh, DEPTOR / RFU, CPM / Fold change vs veh, CPM / RFU, DNAJB6 / Fold change vs veh, DNAJB6 / RFU, CACNA2D3 / Fold change vs veh, CACNA2D3 / RFU, DTX4 / Fold change vs veh, DTX4 / RFU, TFCP2 / Fold change vs veh, TFCP2 / RFU, GMCL1 /// GMCL1P1 / Fold change vs veh, GMCL1 /// GMCL1P1 / RFU, AEBP2 / Fold change vs veh, AEBP2 / RFU, SNHG1 /// SNORD22 /// SNORD25 /// SNORD26 /// SNORD27 /// SNORD28 /// SNORD29 /// SNORD31 / Fold change vs veh, SNHG1 /// SNORD22 /// SNORD25 /// SNORD26 /// SNORD27 /// SNORD28 /// SNORD29 /// SNORD31 / Fold change (Aza/veh), C12orf56 (ProbeSet 11735607_a_at) / Fold change (ACY-1035/veh), C12orf56 (ProbeSet 11735607_a_at) / Fold change (Aza/veh), FGFR1OP (ProbeSet 11751329_s_at) / Fold change (ACY-1035/veh), FGFR1OP (ProbeSet 11751329_s_at) / Fold change (Aza/veh), VPS36 (ProbeSet 11739960_a_at) / Fold change (ACY-1035/veh), VPS36 (ProbeSet 11739960_a_at) / RFU SYPL1 (11715823_x_at) / Fold change /veh SYPL1 (11715823_x_at) / RFU IGFBP7 (11715501_s_at) / Fold change /veh IGFBP7 (11715501_s_at) / RFU REEP3 (11722064_at) / Fold change /veh REEP3 (11722064_at) / RFU IGLL1 (11728026_x_at) / Fold change /veh IGLL1 (11728026_x_at): dose or concentration left out as unconfirmed
Settings: MV-4-11 cells, 48 hours

Nc1ccc(-c2cccs2)cc1NC(=O)c1ccc2c(c1)cc(C1CC1)n2CCN1CCOCC1 [ACY-1035]
RFU OR2T12 /// OR2T33 /// OR2T8 (11738714_s_at): 6.34 RFU
